Test results published in paper PMC11562385 (RSC Chemical Biology, 2024).
Read-outs that look alike come from different tables or passages of the source. Peptide text beside a SMILES is read from it.

What was measured:
e-PBMCs = test: Ex vivo cytokine secretion assay, exhausted PBMCs from a melanoma patient; assay type: cell-based, human; details: e-PBMC, 6 h, LEGENDplex
Description: Then, an ex vivo immune cell culture system using h-PBMCs and exhausted PBMCs from a melanoma patient (e-PBMCs) was used to determine the efficacy of selected ADAPTin peptides on T-effector cells (Fig. 6).[91,92] T-cell exhaustion typically leads to a reduction in cytokine release, cytotoxic activity, as well as slower T-cell proliferation. […] Cytokines concentrations measured at 72 h post-treatment were in most cases over the detection limit range further indicating the effectiveness of our compounds over time.
Non-covalent ADAPTin2c/2p were used as negative control. (A) Levels of inflammatory cytokines measured by flow-cytometry (FACS) after 6 h incubation with electrophilic ADAPTins. Error bars indicate the mean ± SD, (n = 3). (B) Rescue of exhausted PBMCs from a melanoma patient. Levels of inflammatory cytokines and granule-associated proteins released (6 h) measured by FACS (healthy and untreated exhausted PBMCs: h-/e-PBMCs used as positive and negative controls respectively). Error bars indicate the avg ± SD, (n = 2).
Ex Vivo Cytokine Secretion Assay.
Normal PBMCs (from healthy donor) and exhausted PBMCs isolated from the blood sample of a melanoma patient were activated for 48 h before using anti-CD2/28 monoclonal antibodies with IL-2 (2 ng/mL) as mentioned above. After 48 h, PBMCs were washed and incubated with a series of ADAPTins for 6 h. After treatment, media supernatant was collected for cytokine release measurements using the LEGENDplex™ human CD8/NK (13-plex) panel (BioLegend, cat no. 740267). Briefly, samples were mixed with assay buffer and human (13-plex) mixed-beads and plated on the 96-well filter plate. Samples were incubated for 2 h at room temperature, washed, and resuspended beads with detection antibodies according to manufacturer's protocol. Samples were transferred to a 96-well plate to read on a flow cytometer. The flow cytometer and data acquisition software setting were used according to the manufacturer's instructions. Flow analysis was obtained using a CytoFLEX-S flow cytometer equipped with 3 lasers (488 nm blue, 405 nm violet, and 638 nm from Beckman).
Table S9. Raw data of cytokine secretion assay (n=2).
Cytokine assay IL-2 TNF-α IFN-γ Perforin […]

PD1:PDL1 interaction = target: T1, PD1:PDL1 interaction (Homo sapiens, UniProt Q15116); test: PD1/PDL1 immunoblocking ELISA (BPS Bioscience kit cat # 72005); assay type: binding; details: for LE (ligand efficiency): LE = -RTln(EC50)/HA, HA = non-hydrogen atoms omitting the strap (RWV•••VWE)
T1 construct: purchased BPS Bioscience 72005
T1 sequence (Q15116 25-167 limits assumed): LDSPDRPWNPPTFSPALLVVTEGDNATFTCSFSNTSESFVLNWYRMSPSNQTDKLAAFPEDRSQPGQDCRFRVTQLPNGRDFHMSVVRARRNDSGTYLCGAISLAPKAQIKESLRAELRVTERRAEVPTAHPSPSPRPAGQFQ

[1] = Variable-temperature CD melting curves (CD-melts at 228±2 nm and 202±2 nm), individual and global two-state fits; assay type: physicochemical; parameters: DSo: unit not given here; details: for ΔGF0: CD-melt at 228±2 nm, individual two-state Gibbs-Helmholtz fit (Origin 9.0), phosphate buffer 15 mM pH 6.5 ± MeOH; for TM (°C): Fig. 2, CD-melts of regular vs bulged scaffolds; for -TΔSF0 / ΔCpF0 / ΔHF0 / ΔHm: as E16; for VT-CD %-fold: folded fraction (χF) at 25 °C from CD-melts, (R) regular / (B) bulged fold; for VT-CD %-fold / VT-CD Tm (°C): phosphate buffer 15 mM pH 6.5, up to 20% MeOH; for VT-CD Tm (°C): melting temperature from CD-melts; for DHm, fitted value from OriginPro / Tm, fitted value from OriginPro: xlsx sheet of the peptide, individual fit of CD-melt
How it was run: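 Far-UV CD melts (0 to 95 °C) at 15-120 µM peptide in 15 mM phosphate buffer, concentration set by Trp/Tyr absorbance at 280 nm; CD-exciton intensity taken as %-folding probe. Melting curves fitted individually and globally to a two-state model.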

[2] = ELISA, mean of three independent experiments, read-out: EC50 Value
[3] = [PD1•PDL1] blocking EC50, Fig. 3B, cut-off bars of congeneric pairs (Phe/Trp vs Gly), n = 3
[4] = Table S5, individual fit, 228±2 nm
[5] = Table S5, individual fit, 291 K
[6] = Table S5, individual fit, 310 K
[7] = two-state fit of the CD melt θ - θcoil(95) vs T, 0-95 °C, l 0.1 cm, peptide c 3.2e-5 to 5e-5 M

Compound	EC50 (PD1:PDL1 interaction; [2])	LE (ligand efficiency) (PD1:PDL1 interaction)	EC50 (PD1:PDL1 interaction; [3])	ΔGF0 ([1]; 0-95 °C)	TM (°C) [1]	Tm [1, 4]	Hairpin %-fold 291K [1, 5]	Hairpin %-fold 310K [1, 6]	-TΔSF0 [1]	ΔCpF0 [1]	ΔHF0 [1]	ΔHm [1]	VT-CD %-fold [1]	VT-CD Tm (°C) [1]	DHm, fitted value from OriginPro [1]	Tm, fitted value from OriginPro [1]	further results
pembrolizumab: FDA-approved anti-PD1 antibody; 'Pem' = its CDR-H3 loop in Table 1 [reference compound]	–	–	–	–	–	–	–	–	–	–	–	–	–	–	–	–	IFN-γ (e-PBMCs; replicate 1): 4359.77 pg/mL; IL-2 (e-PBMCs; replicate 1): 0.44 pg/mL; Perforin (e-PBMCs; replicate 1): 227.36 pg/mL; TNF-α (e-PBMCs; replicate 1): 500.12 pg/mL; IFN-γ (e-PBMCs; replicate 2): 7617.66 pg/mL; IL-2 (e-PBMCs; replicate 2): 275.42 pg/mL; Perforin (e-PBMCs; replicate 2): 438.61 pg/mL; TNF-α (e-PBMCs; replicate 2): 1224.22 pg/mL
CSCC[C@H](NC(=O)[C@H](CC(=O)O)NC(=O)CNC(=O)[C@H](CCCNC(=N)N)NC(=O)[C@H](Cc1ccc(O)cc1)NC(=O)[C@H](CC(=O)O)NC(=O)[C@H](CCCNC(=N)N)NC(=O)[C@H](Cc1c[nH]c2ccccc12)NC(=O)[C@@H](NC(=O)[C@H](Cc1c[nH]c2ccccc12)NC(=O)[C@@H](N)CCCNC(=N)N)C(C)C)C(=O)NCC(=O)N[C@@H](Cc1ccccc1)C(=O)N[C@@H](CC(=O)O)C(=O)N[C@@H](Cc1c[nH]c2ccccc12)C(=O)N[C@H](C(=O)N[C@@H](Cc1c[nH]c2ccccc12)C(=O)N[C@@H](CCC(=O)O)C(=O)O)C(C)C [1b] (H-RWVWRDYRGDMGFDWVWE-OH)	7.08 µM	0.06	> 5 µM	-0.64 ± 0.01 kcal/mol	47 °C	46.9 oC	81 ± 1%	62 ± 1%	8.29 ± 0.02 kcal/mol	-41 ± 1 cal.deg-1.mol-1	-8.94 ± 0.02 kcal/mol	-9.84 ± 0.01 kcal/mol	81% (R)	47 °C	–	–	DCp (fitted value) ([1]; CD-melt of 1b, c 3.4e-5 M, l 0.1 cm, two-state fit in OriginPro): -40.77 cal/(deg.mol); DHm (fitted value) ([1]; CD-melt of 1b, c 3.4e-5 M, l 0.1 cm, two-state fit in OriginPro, enthalpy at Tm): -9.84462 kcal/mol; cF(18 oC), fraction folded ([1]; CD-melt of 1b, two-state fit in OriginPro, 18 °C): 81%; TDSo ([1]; CD-melt of 1b, two-state fit in OriginPro, standard-state entropic term): -8.2949 kcal/mol; DHo ([1]; CD-melt of 1b, two-state fit in OriginPro, standard-state folding enthalpy): -8.9431 kcal/mol; DSo ([1]; CD-melt of 1b, two-state fit in OriginPro, standard-state folding entropy): -27.84; DGo ([1]; CD-melt of 1b, two-state fit in OriginPro, standard-state folding free energy): -0.6482 kcal/mol; Tm ([1]; CD-melt of 1b, two-state fit in OriginPro, the fitted Tm restated without a unit (apparently °C)): 47 °C; %fold 291K ([1]; CD-melt of 1b, two-state fit, 291 K): 81%; %fold 310K ([1]; CD-melt of 1b, two-state fit, 310 K): 62%; Tm (fitted value) ([1]; CD-melt of 1b, θ - θcoil(95) vs T 0-95 °C, c 3.4e-5 M, l 0.1 cm, two-state fit in OriginPro): 320.113 K
CSCC[C@H](NC(=O)CNC(=O)[C@H](CCC(=O)O)NC(=O)[C@H](CCCNC(=N)N)NC(=O)[C@H](C)NC(=O)[C@@H](NC(=O)[C@H](Cc1c[nH]c2ccccc12)NC(=O)[C@@H](N)CCCNC(=N)N)C(C)C)C(=O)N[C@@H](CC(N)=O)C(=O)N[C@H](C(=O)N[C@@H](CC(=O)O)C(=O)N[C@@H](Cc1c[nH]c2ccccc12)C(=O)N[C@@H](Cc1ccc(O)cc1)C(=O)N[C@@H](Cc1ccccc1)C(=O)N[C@@H](CC(=O)O)C(=O)N[C@@H](Cc1ccc(O)cc1)C(=O)N[C@@H](Cc1c[nH]c2ccccc12)C(=O)N[C@@H](Cc1c[nH]cn1)C(=O)N[C@@H](Cc1c[nH]c2ccccc12)C(=O)N[C@@H](CCC(=O)O)C(=O)O)[C@@H](C)O [2n] (H-RWVAREGMNTDWYFDYWHWE-OH)	–	0.07	–	0.46 ± 0.01 kcal/mol	–	-5.1 oC	36 ± 2%	23 ± 2%	6.11 ± 0.19 kcal/mol	-97 ± 14 cal.deg-1.mol-1	-5.65 ± 0.18 kcal/mol	-2.75 ± 0.80 kcal/mol	36% (B)	<0 °C	–	–	χF (291 K) 228 nm Glob. ([1]; global fit, 228 nm, 291 K): 0%; χF (291 K) 228 nm Indiv. ([1]; individual fit, 228 nm, 291 K): 36%; Tm 228 nm Indiv. ([1]; individual fit, exciton band 228 nm): -5.1 oC; DHm (fitted value, results from OriginPro) [1, 7]: -2.75455 kcal/mol; Tm (fitted value, results from OriginPro) [1, 7]: 268.058 K
CSCC[C@H](NC(=O)[C@H](CC(=O)O)NC(=O)CNC(=O)[C@H](CCCNC(=N)N)NC(=O)[C@H](Cc1ccc(O)cc1)NC(=O)[C@H](CC(=O)O)NC(=O)[C@H](CCCNC(=N)N)NC(=O)[C@H](CCCNC(=N)N)NC(=O)[C@H](C)NC(=O)[C@@H](NC(=O)[C@H](Cc1c[nH]c2ccccc12)NC(=O)[C@@H](N)CCCNC(=N)N)C(C)C)C(=O)NCC(=O)N[C@@H](Cc1ccccc1)C(=O)N[C@@H](CC(=O)O)C(=O)N[C@@H](Cc1ccc(O)cc1)C(=O)N[C@@H](Cc1c[nH]c2ccccc12)C(=O)N[C@H](C(=O)N[C@@H](Cc1c[nH]c2ccccc12)C(=O)N[C@@H](CCC(=O)O)C(=O)O)C(C)C [2b] (H-RWVARRDYRGDMGFDYWVWE-OH)	7.05 µM	0.06	> 5 µM	-1.24 ± 0.01 kcal/mol	59 °C	59.1 oC	92 ± 1%	81 ± 1%	7.65 ± 0.03 kcal/mol	-193 ±1 cal.deg-1.mol-1	-8.89 ± 0.03 kcal/mol	–	92% (B)	59 °C	-15.492 kcal/mol	332.248 K	–
CSCC[C@H](NC(=O)[C@H](CC(=O)O)NC(=O)[C@H](Cc1ccccc1)NC(=O)[C@H](CCCNC(=N)N)NC(=O)[C@H](Cc1ccc(O)cc1)NC(=O)[C@H](CC(=O)O)NC(=O)[C@H](CCCNC(=N)N)NC(=O)[C@H](Cc1c[nH]c2ccccc12)NC(=O)[C@@H](NC(=O)[C@H](Cc1c[nH]c2ccccc12)NC(=O)[C@@H](N)CCCNC(=N)N)C(C)C)C(=O)NCC(=O)N[C@@H](Cc1ccccc1)C(=O)N[C@@H](CC(=O)O)C(=O)N[C@@H](Cc1c[nH]c2ccccc12)C(=O)N[C@H](C(=O)N[C@@H](Cc1c[nH]c2ccccc12)C(=O)N[C@@H](CCC(=O)O)C(=O)O)C(C)C [1c] (H-RWVWRDYRFDMGFDWVWE-OH)	–	0.06	> 5 µM	0.31 ± 0.01 kcal/mol	–	-2.99 oC	40 ± 1%	32 ± 1%	3.66 ± 0.01 kcal/mol	-23 ± 0.4 cal.deg-1.mol-1	-3.35 ± 0.01 kcal/mol	–	40% (R)	<0 °C	-2.72263 kcal/mol	270.158 K	EC50 (PD1:PDL1 interaction; PD1:PDL1 inhibition EC50, ELISA, PDL1-coated plate, biotin-labeled human PD-1, 2 h rt, chemiluminescence, Hill fit, mean ± SD, n = 3, SD): 12.3 ± 1.5 µM
